Counter-ions that a name gives are not always drawn.
Key:
Test in all cases: normalized area under the dose-response curve (viability relative to DMSO control) (fraction); higher = less sensitive (more viable cells)
Conditions in all cases: exposure time not given
[1] = tested on: OCI-MY7 (cancer type: MM)
Procedure: (§1)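 25 myeloma and 15 non-Hodgkin lymphoma cell lines were exposed to each of 76 drugs as 7-point log dilutions (0.01 nM–10 µM) in duplicate. Viability was read with CellTiter-Glo and normalised to DMSO (0.1%) and staurosporine (10 µM) plate controls. Normalised AUC was calculated by the trapezoidal method relative to the negative control.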

KMS11 (cancer type: MM) = tested on: KMS11 (cancer type: MM)
Procedure: as §1

AMO1 (cancer type: MM) = tested on: AMO1 (cancer type: MM)
Procedure: as §1

XG2 (cancer type: MM) = tested on: XG2 (cancer type: MM)
Procedure: as §1

[2] = tested on: OCI-LY3 (cancer type: DLBCL)
Procedure: as §1

[3] = tested on: Karpas-299 (cancer type: TCL)
Procedure: as §1

[4] = tested on: SU-DHL1 (cancer type: TCL)
Procedure: as §1

[5] = tested on: OCI-MY5 (cancer type: MM)
Procedure: as §1

KMS18 (cancer type: MM) = tested on: KMS18 (cancer type: MM)
Procedure: as §1

[6] = tested on: JVM2 (cancer type: Mantle)
Procedure: as §1

[7] = tested on: Granta-519 (cancer type: Mantle)
Procedure: as §1

MM1.S (cancer type: MM) = tested on: MM1.S (cancer type: MM)
Procedure: as §1

OPM2 (cancer type: MM) = tested on: OPM2 (cancer type: MM)
Procedure: as §1

[8] = tested on: OCI-MY5/CRBN (cancer type: MM)
Procedure: as §1

MM1.R (cancer type: MM) = tested on: MM1.R (cancer type: MM)
Procedure: as §1

[9] = tested on: SU-DHL6 (cancer type: DLBCL)
Procedure: as §1

SKMM2 (cancer type: MM) = tested on: SKMM2 (cancer type: MM)
Procedure: as §1

Se-Ax (cancer type: TCL) = tested on: Se-Ax (cancer type: TCL)
Procedure: as §1

[10] = tested on: KMS28PE (cancer type: MM)
Procedure: as §1

[11] = tested on: JeKo-1 (cancer type: Mantle)
Procedure: as §1

[12] = tested on: KMS28BM (cancer type: MM)
Procedure: as §1

[13] = tested on: HuT 78 (cancer type: TCL)
Procedure: as §1

[14] = tested on: NCI-H929 (cancer type: MM)
Procedure: as §1

[15] = tested on: OCI-MY5/Vec (cancer type: MM)
Procedure: as §1

[16] = tested on: RPMI 8226 (cancer type: MM)
Procedure: as §1

[17] = tested on: SR-786 (cancer type: TCL)
Procedure: as §1

[18] = tested on: OCI-LY19 (cancer type: DLBCL)
Procedure: as §1

[19] = tested on: SU-DHL2 (cancer type: DLBCL)
Procedure: as §1

[20] = tested on: KMS12PE (cancer type: MM)
Procedure: as §1

L363 (cancer type: MM) = tested on: L363 (cancer type: MM)
Procedure: as §1

[21] = tested on: OCI-LY1 (cancer type: DLBCL)
Procedure: as §1

JJN3 (cancer type: MM) = tested on: JJN3 (cancer type: MM)
Procedure: as §1

U266 (cancer type: MM) = tested on: U266 (cancer type: MM)
Procedure: as §1

KMS34 (cancer type: MM) = tested on: KMS34 (cancer type: MM)
Procedure: as §1

[22] = tested on: Mino (cancer type: Mantle)
Procedure: as §1

KMS26 (cancer type: MM) = tested on: KMS26 (cancer type: MM)
Procedure: as §1

LP1 (cancer type: MM) = tested on: LP1 (cancer type: MM)
Procedure: as §1

FR4 (cancer type: MM) = tested on: FR4 (cancer type: MM)
Procedure: as §1

My-La (cancer type: TCL) = tested on: My-La (cancer type: TCL)
Procedure: as §1

EJM (cancer type: MM) = tested on: EJM (cancer type: MM)
Procedure: as §1

Structure (SMILES) | normalized area under the dose-response curve [1] | normalized area under the dose-response curve (KMS11 (cancer type: MM)) | normalized area under the dose-response curve (AMO1 (cancer type: MM)) | normalized area under the dose-response curve (XG2 (cancer type: MM)) | normalized area under the dose-response curve [2] | normalized area under the dose-response curve [3] | normalized area under the dose-response curve [4] | normalized area under the dose-response curve [5] | normalized area under the dose-response curve (KMS18 (cancer type: MM)) | normalized area under the dose-response curve [6] | normalized area under the dose-response curve [7] | normalized area under the dose-response curve (MM1.S (cancer type: MM)) | normalized area under the dose-response curve (OPM2 (cancer type: MM)) | normalized area under the dose-response curve [8] | normalized area under the dose-response curve (MM1.R (cancer type: MM)) | normalized area under the dose-response curve [9] | normalized area under the dose-response curve (SKMM2 (cancer type: MM)) | normalized area under the dose-response curve (Se-Ax (cancer type: TCL)) | normalized area under the dose-response curve [10] | normalized area under the dose-response curve [11] | normalized area under the dose-response curve [12] | normalized area under the dose-response curve [13] | normalized area under the dose-response curve [14] | normalized area under the dose-response curve [15] | normalized area under the dose-response curve [16] | normalized area under the dose-response curve [17] | normalized area under the dose-response curve [18] | normalized area under the dose-response curve [19] | normalized area under the dose-response curve [20] | normalized area under the dose-response curve (L363 (cancer type: MM)) | normalized area under the dose-response curve [21] | normalized area under the dose-response curve (JJN3 (cancer type: MM)) | normalized area under the dose-response curve (U266 (cancer type: MM)) | normalized area under the dose-response curve (KMS34 (cancer type: MM)) | normalized area under the dose-response curve [22] | normalized area under the dose-response curve (KMS26 (cancer type: MM)) | normalized area under the dose-response curve (LP1 (cancer type: MM)) | normalized area under the dose-response curve (FR4 (cancer type: MM)) | normalized area under the dose-response curve (My-La (cancer type: TCL)) | normalized area under the dose-response curve (EJM (cancer type: MM))
Cc1nc(Nc2ncc(C(=O)Nc3c(C)cccc3Cl)s2)cc(N2CCN(CCO)CC2)n1 [Dasatinib] | 0.82 | 0.686 | 0.72 | 0.746 | 0.727 | 0.875 | 0.862 | 0.701 | 0.765 | 0.611 | 0.783 | 0.75 | 0.802 | 0.824 | 0.76 | 0.754 | 0.906 | 0.82 | 0.731 | 0.778 | 0.994 | 0.768 | 0.74 | 0.79 | 0.739 | 0.843 | 0.718 | 0.894 | 0.48 | 0.813 | 0.66 | 0.581 | 0.616 | 0.612 | 0.745 | 0.868 | 0.712 | 0.816 | 0.841 | 0.702
Nc1ncn([C@H]2C[C@H](O)[C@@H](CO)O2)c(=O)n1 [Decitabine] | 0.91 | 0.871 | 0.836 | 0.896 | 0.883 | 0.912 | 0.962 | 0.773 | 0.97 | 0.879 | 0.978 | 0.89 | 0.835 | 0.888 | 0.85 | 0.844 | 0.933 | 0.832 | 0.778 | 0.644 | 0.955 | 0.958 | 0.89 | 0.93 | 0.914 | 0.854 | 0.84 | 0.94 | 0.9 | 0.82 | 0.912 | 0.912 | 0.804 | 0.702 | 0.818 | 0.897 | 0.88 | 0.937 | 0.957 | 0.916
C=CC(=O)Nc1cc(Nc2nccc(-c3cn(C)c4ccccc34)n2)c(OC)cc1N(C)CCN(C)C [Osimertinib] | 0.42 | 0.417 | 0.423 | 0.422 | 0.931 | 0.574 | 0.463 | 0.399 | 0.442 | 0.597 | 0.834 | 0.44 | 0.489 | 0.551 | 0.45 | 0.911 | 0.506 | 0.445 | 0.476 | 0.626 | 0.53 | 0.473 | 0.47 | 0.535 | 0.429 | 0.521 | 0.872 | 0.925 | 0.46 | 0.466 | 0.937 | 0.439 | 0.451 | 0.337 | 0.601 | 0.532 | 0.406 | 0.582 | 0.769 | 0.429
CC(C)(C)c1nc(-c2cccc(NS(=O)(=O)c3c(F)cccc3F)c2F)c(-c2ccnc(N)n2)s1 [Dabrafenib mesylate] | 0.81 | 0.831 | 0.643 | 0.932 | 0.89 | 0.752 | 0.833 | 0.733 | 0.735 | 0.587 | 0.898 | 0.9 | 0.829 | 0.906 | 0.84 | 0.882 | 0.827 | 0.775 | 0.85 | 0.858 | 0.979 | 0.812 | 0.78 | 0.858 | 0.851 | 0.851 | 0.861 | 0.889 | 0.75 | 0.787 | 0.984 | 0.804 | 0.754 | 0.84 | 0.775 | 0.972 | 0.836 | 0.939 | 0.908 | 0.775
Nc1cccc2c1CN(C1CCC(=O)NC1=O)C2=O (stereo not given) [Lenalidomide] | 0.78 | 0.758 | 0.799 | 0.861 | 0.802 | 0.875 | 0.812 | 0.786 | 0.805 | 0.657 | 0.891 | 0.66 | 0.846 | 0.928 | 0.68 | 0.847 | 0.874 | 0.709 | 0.899 | 0.874 | 0.819 | 0.828 | 0.74 | 0.999 | 0.915 | 0.992 | 0.758 | 0.785 | 0.74 | 0.785 | 0.825 | 0.822 | 0.858 | 0.662 | 0.897 | 0.785 | 0.847 | 0.852 | 0.944 | 0.836
C/C=C1\NC(=O)[C@H]2CSSCC/C=C/[C@H](CC(=O)N[C@H](C(C)C)C(=O)N2)OC(=O)[C@H](C(C)C)NC1=O [Romidepsin] | 0.5 | 0.382 | 0.224 | 0.15 | 0.203 | 0.118 | 0.113 | 0.13 | 0.291 | 0.148 | 0.209 | 0.23 | 0.445 | 0.0857 | 0.33 | 0.385 | 0.511 | 0.107 | 0.262 | 0.174 | 0.271 | 0.0814 | 0.09 | 0.143 | 0.433 | 0.148 | 0.198 | 0.188 | 0.24 | 0.401 | 0.118 | 0.324 | 0.21 | 0.206 | 0.178 | 0.257 | 0.447 | 0.152 | 0.109 | 0.105
CC(C)(C)c1cc(NC(=O)Nc2ccc(-c3cn4c(n3)sc3cc(OCCN5CCOCC5)ccc34)cc2)no1 [Quizartinib] | 0.91 | 0.828 | 0.837 | 0.763 | 0.959 | 0.93 | 0.686 | 0.65 | 0.737 | 0.764 | 0.941 | 0.82 | 0.531 | 0.917 | 0.69 | 0.907 | 0.973 | 0.825 | 0.898 | 0.98 | 0.838 | 0.865 | 0.88 | 0.894 | 0.955 | 0.869 | 0.923 | 0.956 | 0.87 | 0.751 | 0.987 | 0.631 | 0.867 | 0.439 | 0.863 | 0.934 | 0.766 | 0.923 | 0.917 | 0.861

Source: the supplement of paper PMC7214452
